Patent US20220016174A1, “FOETAL MESENCHYMAL STEM CELL COMPOSITION OF ALLOGENIC ORGIN, TREATMENT METHOD AND USE THEREOF IN MASTITIS IN MILK-PRODUCING ANIMALS, INCLUDING CATTLE” (UNIVERSIDAD DE CHILE, priority 2018, published 2022)

Experiments:
[1] = test system: Holstein Friesian cows challenged with S. aureus; assay: Clinical and productive variables in cows challenged with S. aureus (induced mastitis); type: in vivo
S. aureus = assay: Bacteriological analysis (CFU) in milk of cows challenged with S. aureus; type: in vivo, Staphylococcus aureus
Procedure: 1 mL of PBS was inoculated into the right quarters as a control. The NEG group (without therapy) was treated on days 4 and 10 with a 5 mL Ringer Lactate solution via the teat canal in the two infected quarters. The ATB group (antibiotic therapy) was treated with a commercial suspension of 50 mg of pirlimycin on experimental days 4 and 5 via the teat canal in the two infected quarters. The MSC group (MSC therapy) was administered with a 2.5×10^7 suspension of MSC in 3 ml of Lactated Ringer via the teat canal in the two infected quarters. From the day of the challenge and daily during 15 days, the cows were clinically evaluated and milk samples were collected daily to determine SCC and CFU (FIG. 2B). The clinical evaluation and the collection of milk samples were carried out as detailed below.
Milk samples prior to milking were collected aseptically from all cows following the protocols of the International Dairy Federation (1985) on three consecutive days prior to the experimental challenge (FIG. 2B). Briefly, before milking, the quarters and teats were cleaned using a brush or washed with water in case of excessive presence of mud or manure. Then the teats and especially the tips of the teats were disinfected using paper towels with 70% alcohol. Three or four milk streams were discarded to reduce the possibility of contamination with pathogens present in the teat canal. Each of the teats, starting with the most distant ones, were disinfected again using a 70% alcohol swab. Previously labelled sample bottles were positioned at a 45-degree angle below the nipple without touching it to prevent contamination. Nearby teats were first sampled and then distant teats, filling one third of the vial. The samples were refrigerated or frozen for analysis of SCC or CFU, respectively. Only cows with three negative consecutive cultures were used in the study. […]
From the day of the challenge and daily for 15 days, milk samples were collected for determination of CFU. The CFU values were subsequently expressed as a linear score (LS-CFU) by means of logarithmic transformation (LS=LOGN). […]

CC[C@@H]1CCN[C@H](C(=O)N[C@@H]([C@H]2O[C@H](SC)[C@H](O)[C@@H](O)[C@H]2O)[C@H](C)Cl)C1 [ATB, pirlimycin]
average daily milk production [1]: 16.7±0.8 I | decrease in milk production between days 5 and 7 [1]: 2.1 | Milk yield reduction days 5-7 (Its.) ([1]; days 5-7): 2.1 Its. | Milk yield (Its.) ([1]; n=5 each group, mean ± SD): 16.7 ± 0.8 Its. | Rectal temperature (° C.) ([1]; n=5 each group, mean ± SD): 38.1 ± 0.3 °C | Respiratory rate (bpm) ([1]; n=5 each group, mean ± SD): 28.6 ± 2.5 bpm | Ruminal frequency (in 2 min) ([1]; n=5 each group, mean ± SD): 2.6 ± 0.3 | Termography BL (° C.) ([1]; n=5 each group, mean ± SD): 34.3 ± 0.6 °C | Termography BR (° C.) ([1]; n=5 each group, mean ± SD): 34.2 ± 0.5 °C | Termography FL (° C.) ([1]; n=5 each group, mean ± SD): 33.8 ± 0.7 °C | Termography FR(° C.) ([1]; n=5 each group, mean ± SD): 33.7 ± 0.7 °C | LS-CFU (linear score of CFU in milk) (S. aureus; day 3 post-challenge (before treatment on day 4)): −0.7 | LS-CFU (linear score of CFU in milk) (S. aureus; day 8 post-challenge): −0.7 | LS-CFU (linear score of CFU in milk) (S. aureus; day 9 post-challenge): −0.7
